Where a name gives a salt, the structure may show the parent alone. Read-outs that look alike come from different tables or passages of the source. Where a SMILES comes first, the peptide text is derived from it. The star is where a group is joined. Carbamoyl(2-ClEt,NO) = O=NN(CCCl)C(=O)*
Legend:
L-1210 leukemia = assay: Effect on intraperitoneally implanted L-1210 leukemia in mice (Table I); type: in vivo; conditions: treatment 3 days
From the text: In table I the effect of Compound X [drawing 8] and VII on intraperitoneally implanted L-1210 leukemia is shown on mice.
Tumor inoculum = 10^6, ascites cells, i.p.
Host animal = CDF, female mice
Toxicity = on the 5th day < 4/6 mice are alive.
Evaluation = MST = average survival period
Critical limit = T/C ≥ 125, significant antitumor activity.

L1210 leukemia [1] = type: in vivo, mice
From the text: Effect of compound of formula X in combination
with pharmaceuticals in mice suffering from L1210

B16 melanoma = assay: Effect on solid tumors: B16 melanoma metastatizing mice tumor (i.m.); type: in vivo
From the text: (§1) (B) Lewis lung and B16 melanoma - meta-
(§2) statizing mice tumor (i.m.)
(§3) i.p. administration from the 1st day after […]

Lewis lung tumor = assay: Effect on solid tumors: Lewis lung metastatizing mice tumor (i.m.); type: in vivo
From the text: as §1, §2, §3

L1210 leukemia [2] = assay: Relation between effect and chemical structure in mice suffering from L1210 leukemia (Table III); type: in vivo
From the text: Examination of the relation between the
effect and the chemical structure with compounds
similar to compound of formula X in mice suffering

O=NN(CCCl)C(=O)NCCCl [BCNU, 1,3-bis-(β-chloro-ethyl)-1-nitroso-urea]
Average loss of weight on the 5th day (L-1210 leukemia; dose IP 30 mg/kg): -0.8 g
MST (average survival period) (L-1210 leukemia; dose IP 30 mg/kg): > 47.0 days
MST efficiency %, T/C (L-1210 leukemia; dose IP 30 mg/kg): > 783%
Number of live mice on the 5th day (L-1210 leukemia; dose IP 30 mg/kg): 6/6
Number of live mice on the [47th] day (L-1210 leukemia; dose IP 30 mg/kg): 5
Average loss of weight on the 5th day (L-1210 leukemia; dose IP 40 mg/kg): -1.4 g
MST (average survival period) (L-1210 leukemia; dose IP 40 mg/kg): > 47.0 days
MST efficiency %, T/C (L-1210 leukemia; dose IP 40 mg/kg): > 783%
Number of live mice on the 5th day (L-1210 leukemia; dose IP 40 mg/kg): 6/6
Number of live mice on the [47th] day (L-1210 leukemia; dose IP 40 mg/kg): 5
ILS % (L1210 leukemia [1]; 5 mg/kg, day 1): 25%
ILS % (L1210 leukemia [1]; 20 mg/kg, day 1): 110%
ILS % (L1210 leukemia [1]; 1 × 10 mg/kg, day 2): 77%
ILS % (L1210 leukemia [1]; 1 × 20 mg/kg, day 3): 70%
ILS % (B16 melanoma; 20 mg/kg i.p.): 61%
Median surviving day (B16 melanoma; 20 mg/kg i.p.): 42.0 days
ILS % (B16 melanoma; 5 × 4 mg/kg i.p.): 31%
Median surviving day (B16 melanoma; 5 × 4 mg/kg i.p.): 34.0 days
ILS % (Lewis lung tumor; 20 mg/kg i.p.): 36%
Median surviving day (Lewis lung tumor; 20 mg/kg i.p.): 28.5 days
ILS % (Lewis lung tumor; 5 × 4 mg/kg i.p.): 19%
Median surviving day (Lewis lung tumor; 5 × 4 mg/kg i.p.): 25.0 days

O=NN(CCCl)C(=O)N[C@H]1C(O)O[C@H](CO)[C@@H](O)[C@@H]1O (stereo partly drawn) [Chlorosoticin, 2-[3-(2-chloro-ethyl)-3-nitroso-ureido]-2-deoxy-O-glycopyranose]
Average loss of weight on the 5th day (L-1210 leukemia; dose IP 8 mg/kg): +1.2 g
MST (average survival period) (L-1210 leukemia; dose IP 8 mg/kg): 9.0 days
MST efficiency %, T/C (L-1210 leukemia; dose IP 8 mg/kg): 150%
Number of live mice on the 5th day (L-1210 leukemia; dose IP 8 mg/kg): 6/6
Average loss of weight on the 5th day (L-1210 leukemia; dose IP 16 mg/kg): -0.8 g
MST (average survival period) (L-1210 leukemia; dose IP 16 mg/kg): 20.5 days
MST efficiency %, T/C (L-1210 leukemia; dose IP 16 mg/kg): 342%
Number of live mice on the 5th day (L-1210 leukemia; dose IP 16 mg/kg): 6/6
Average loss of weight on the 5th day (L-1210 leukemia; dose IP 32 mg/kg): -1.2 g
MST (average survival period) (L-1210 leukemia; dose IP 32 mg/kg): > 47.0 days
MST efficiency %, T/C (L-1210 leukemia; dose IP 32 mg/kg): > 783%
Number of live mice on the 5th day (L-1210 leukemia; dose IP 32 mg/kg): 5/6
Number of live mice on the [47th] day (L-1210 leukemia; dose IP 32 mg/kg): 3
Average loss of weight on the 5th day (L-1210 leukemia; dose IP 48 mg/kg): -1.3 g
MST (average survival period) (L-1210 leukemia; dose IP 48 mg/kg): 8.5 days
MST efficiency %, T/C (L-1210 leukemia; dose IP 48 mg/kg): 142%
Number of live mice on the 5th day (L-1210 leukemia; dose IP 48 mg/kg): 6/6

CC(C)[C@H](NC(=O)[C@@H]1CCCN1C(=O)[C@H](CCCCN)NC(=O)CNC(=O)N(CCCl)N=O)C(N)=O [XII, α-N-nitroso-N-(β-chloro-ethyl)-carbamoyl-glycyl-lysyl-prolyl-valine-amide-hydrochloride] ({Carbamoyl(2-ClEt,NO)}-GKPV-NH2)
ILS % (L1210 leukemia [2]; 15 mg/kg): 20%
ILS % (L1210 leukemia [2]; 45 mg/kg): 10%
ILS % (L1210 leukemia [2]; 100 mg/kg): 35%
ILS % (L1210 leukemia [2]; 150 mg/kg): 230%

O=P1(N(CCCl)CCCl)NCCCO1 (stereo not drawn) [cyclophosphamide]
ILS % (L1210 leukemia [1]; 1 × 50 mg/kg, day 2): 44%

O[C@H]([C@H](O)[C@@H](O)CBr)[C@H](O)CBr [dibromodulcitol]
ILS % (L1210 leukemia [1]; 1 × 50 mg/kg, day 2): 0%

— US4950651A, “Nitroso-N-(β-chloro ethyl)-carbamoyl peptides” (priority 1981, dated 1990)
